Laboratory results: publication doi:10.1101/2022.07.05.498881v1 (biorxiv, 2022)

Each compound was assayed against T1, SARS-CoV-2 MPro (main protease, 3CL protease, Nsp5) (Severe acute respiratory syndrome coronavirus 2, UniProt P0DTD1) (assay: fluorogenic NSP7 peptide cleavage, […] h preincubation, […] °C). Details: not given.
T1 construct: gene rep
Type: biochemical

Row | Compound | IC50 [µM]
1 | O=Cc1ncc(Br)cc1OCc1cc(Cl)cc(Br)c1 ['6117] | 7
2 | O=C1N[C@@]2(CCc3ccccc32)C(=O)N1c1cncc2ccccc12 ['6111] | 25
3 | CSc1ccncc1NC(=O)C(=O)c1ccc(F)cc1 [Z1669286714] | 110
4 | COC(=O)c1cc(C#N)c(=O)n(Cc2cccc(F)c2Cl)c1 [ZINC338540162] | 30
5 | CC1CCC2(NC(=O)N(c3cncc4ccccc34)C2=O)c2ccccc21 (centres unmarked) [Z4929616137] | 8
6 | Cn1cccc1C(=O)C(=O)Nc1cnccc1Oc1ccccc1 [Z2195811405] | ~200
7 | N#CC(C(=O)c1ccc([N+](=O)[O-])o1)c1cccnc1 (centres unmarked) ['5103] | 20
8 | Cc1noc(C)c1CCCNc1nc(-c2ccncc2)nc2ccccc12 [ZINC301553312] | 63
9 | CC1(C)CN(C(=O)Nc2cncc3ccccc23)Cc2cc(Br)ccc2O1 [Z4924562413] | 13
10 | O=C(Cc1cccnc1)N(Cc1ccccn1)c1ccc(Cl)cc1 [ZINC346371112] | 98
11 | Cc1ccc(COc2cc(Br)cnc2C=O)cc1[N+](=O)[O-] ['9218] | 12
12 | O=Cc1ncc(Br)cc1OCc1cccc([N+](=O)[O-])c1 ['9112] | 35
13 | O=Cc1ncc(Br)cc1OCc1ccc(Cl)cc1 ['9313] | 22
14 | COc1cc(C=O)c(OS(=O)(=O)CC2CCCCC2)cc1OC [ZINC271072260] | 143
15 | Cc1ccc(F)cc1C(=O)C(=O)Nc1cncc(Br)c1C [Z5420225795] | 40
16 | C[C@H]1CN(C(=O)Nc2cncc3ccccc23)Cc2ccccc2O1 [SG-0001] | 55
17 | Cc1c(C(=O)C(C#N)C(=O)Nc2ccccc2)nnn1-c1ccccc1 (centres unmarked) ['6792] | 100
18 | O=Cc1ncc(Br)cc1OCc1cc(Br)ccc1Cl ['8252] | 6
19 | CC1(Cc2ccc(F)cc2)CCCN1c1ncc(C=O)cn1 (centres unmarked) ['0892] | 140

Row | Compound | IC50 [µM]
20 | O=Cc1cncc(C(=O)N2CCCC2c2cccc3ccccc23)c1 (centres unmarked) ['0292] | 100
21 | O=Cc1ncc(Br)cc1OCc1ccc(Cl)c(Br)c1 ['9121] | 6
22 | O=Cc1ncc(Br)cc1OCc1cccc([N+](=O)[O-])c1Cl ['9220] | 33
23 | O=Cc1ncc(Br)cc1OCc1ccc2c(c1)COC2 ['3620] | 55
24 | O=Cc1ncc(Br)cc1OCc1ccc(Cl)c([N+](=O)[O-])c1 ['7021] | 1
25 | O=Cc1ncc(Br)cc1OCc1ccc2ccccc2c1 ['7356] | 26
26 | O=C(Cc1cncc2ccccc12)N1CCOc2ccc(Cl)cc2C1 [Z4946671001] | 5
27 | Cc1noc(CCCOc2c(C)cc(Br)cc2C=O)n1 ['2961] | 100
28 | O=C1CCN(Cc2cccs2)C(=O)N1Cc1ccc[nH]c1=O [Z3535317212] | 29
29 | N#Cc1ccc(Br)c(COc2cc(Br)cnc2C=O)c1 ['6690] | 2
30 | O=Cc1cnc(N2CC(c3nc4ccccc4[nH]3)C2)nc1 ['5156] | 80
31 | O=C1NC(c2cccc3ccccc23)C(=O)N1c1cncc2ccccc12 (centres unmarked) [Z4929615577] | 10
32 | CC1CN(C(=O)CCn2cc(Br)ccc2=O)Cc2ccccc2O1 (centres unmarked) [ZINC553840273] | 88
33 | O=Cc1ccc(Br)cc1OCc1ccc(Cl)c([N+](=O)[O-])c1 ['4218] | > 200
34 | O=C1CN(Cc2ccc(F)cc2)C(=O)N1c1cncc2ccccc12 ['5548] | 30
35 | COc1ccc(Br)cc1C(=O)C(=O)Nc1cncc(C)c1 [Z1355254448] | 110
36 | N#CC(C(=O)c1cccnc1)c1cc(F)cc(F)c1 (centres unmarked) ['0431] | 50
37 | Cc1cc(C(=O)C(=O)Nc2cnccc2F)ccc1F [ZINC5420738300] | 160

Same assay, conditions: pH 7.4, 0.05% Tween-20, 1 mM DTT, substrate 12.7 μM (Km); DMSO stock; possibly covalent warhead; read-out: IC50[DMSO]

Row | Compound | IC50 [µM]
38 | ZINC795258204 | 177
